Source: ChEMBL document CHEMBL5518181, “Studies of antibacterial activity (in vitro and in vivo) and mode of action for des-acyl tridecaptins (DATs)” (Eur J Med Chem, 2024)
≈ marks a conversion by molar mass, not a printed value.

Tests used:
[1] = Hemolytic activity in human red blood cells at 400 ug/ml incubated for 45 mins by spectrophotometric analysis relative to control; format: toxicity, cell-based, Erythrocyte; conditions: red blood cells (erythrocytes), at 400 µg/mL, read-out: Activity
Escherichia coli = assay: Antibacterial activity against wild-type Escherichia coli ATCC 25922 assessed as inhibition of bacterial growth incubated for 18 hrs; format: functional; conditions: read-out: MIC100
[2] = Cytotoxicity against human HepG2 cells incubated for 40 hrs by celltiter-glo luminescent cell viability assay; format: toxicity, cell-based
Klebsiella pneumoniae = assay: Antibacterial activity against wild-type Klebsiella pneumoniae ATCC 13883 assessed as inhibition of bacterial growth incubated for 18 hrs; format: functional; conditions: read-out: MIC100

Row | Compound | hemolysis at 0.75 h, 400 ug/ml [1] [%] | MIC (Escherichia coli) [µg/mL] | IC50 at 40 h [2] [µg/mL] | MIC (Klebsiella pneumoniae) [µg/mL]
1 | CC[C@H](C)[C@@H](NC(=O)[C@@H](NC(=O)[C@H](CCC(=O)O)NC(=O)[C@H](Cc1ccccc1)NC(=O)[C@@H](CCN)NC(=O)[C@H](CCN)NC(=O)[C@H](CO)NC(=O)[C@@H](Cc1c[nH]c2ccccc12)NC(=O)[C@@H](CO)NC(=O)[C@H](CCCCN)NC(=O)[C@@H](CCN)NC(=O)[C@H](NC(=O)[C@H](C)N)C(C)C)C(C)C)C(=O)N[C@@H](C)C(=O)O | 0.5 | 16 (≈ 10.4 µM) | > 170 | 32 (≈ 20.8 µM)
2 | CC[C@H](C)[C@@H](NC(=O)[C@@H](NC(=O)[C@H](CCC(=O)O)NC(=O)[C@H](Cc1ccccc1)NC(=O)[C@@H](CCN)NC(=O)[C@H](CCN)NC(=O)[C@H](CO)NC(=O)[C@@H](Cc1c[nH]c2ccccc12)NC(=O)[C@@H](CO)NC(=O)CNC(=O)[C@@H](CCN)NC(=O)[C@H](NC(=O)[C@@H](N)CC(=O)O)C(C)C)C(C)C)C(=O)N[C@@H](C)C(=O)O | 0 | > 64 | > 170 | > 64
3 | CC[C@H](C)[C@@H](NC(=O)[C@@H](NC(=O)[C@H](CCC(=O)O)NC(=O)[C@H](Cc1ccccc1)NC(=O)[C@@H](CCN)NC(=O)[C@H](CCN)NC(=O)[C@H](CO)NC(=O)[C@@H](Cc1c[nH]c2ccccc12)NC(=O)[C@@H](CO)NC(=O)CNC(=O)[C@@H](CCN)NC(=O)[C@H](N)C(C)C)C(C)C)C(=O)N[C@H](C(=O)O)C(C)(C)C | 12.1 | 32 (≈ 22.3 µM) | 43 (≈ 29.9 µM) | 32 (≈ 22.3 µM)
4 | CC[C@H](C)[C@@H](NC(=O)[C@@H](NC(=O)[C@H](CCC(=O)O)NC(=O)[C@H](Cc1ccccc1)NC(=O)[C@@H](CCN)NC(=O)[C@H](CCN)NC(=O)[C@H](CO)NC(=O)[C@@H](Cc1c[nH]c2ccccc12)NC(=O)[C@@H](CO)NC(=O)[C@H](C)NC(=O)[C@@H](CCN)NC(=O)[C@H](N)C(C)C)C(C)C)C(=O)N[C@@H](C)C(=O)O | 0 | > 64 | > 170 | 64 (≈ 45.4 µM)
5 | CC[C@H](C)[C@@H](NC(=O)[C@@H](NC(=O)[C@H](CCC(=O)O)NC(=O)[C@H](Cc1ccccc1)NC(=O)[C@@H](CCN)NC(=O)[C@H](CCN)NC(=O)[C@H](CO)NC(=O)[C@@H](Cc1c[nH]c2ccccc12)NC(=O)[C@@H](CO)NC(=O)CNC(=O)[C@H](N)CCN)C(C)C)C(=O)N[C@@H](C)C(=O)O | 0 | > 64 | > 170 | > 64
6 | CC[C@H](C)[C@@H](NC(=O)[C@@H](NC(=O)[C@H](CCC(=O)O)NC(=O)[C@H](Cc1ccccc1)NC(=O)[C@@H](CCN)NC(=O)[C@H](CCN)NC(=O)[C@H](CO)NC(=O)[C@@H](Cc1c[nH]c2ccccc12)NC(=O)[C@@H](C)NC(=O)CNC(=O)[C@@H](CCN)NC(=O)[C@H](NC(=O)[C@H](C)N)C(C)C)C(C)C)C(=O)N[C@@H](C)C(=O)O | 0 | 16 (≈ 11 µM) | 139 (≈ 95.9 µM) | 32 (≈ 22.1 µM)
7 | CC[C@H](C)[C@@H](NC(=O)[C@@H](NC(=O)[C@H](CCC(=O)O)NC(=O)[C@H](Cc1ccccc1)NC(=O)[C@@H](CCN)NC(=O)[C@H](CCN)NC(=O)[C@H](CO)NC(=O)[C@@H](Cc1c[nH]c2ccccc12)NC(=O)[C@@H](CO)NC(=O)[C@H](CCN)NC(=O)[C@@H](CCN)NC(=O)[C@H](N)C(C)C)C(C)C)C(=O)N[C@@H](C)C(=O)O | 0.3 | 32 (≈ 22.3 µM) | > 170 | 64 (≈ 44.5 µM)
8 | CC[C@H](C)[C@@H](NC(=O)[C@@H](NC(=O)[C@H](CCC(=O)O)NC(=O)[C@H](Cc1ccccc1)NC(=O)[C@@H](CCN)NC(=O)[C@H](CCN)NC(=O)[C@H](CO)NC(=O)[C@@H](Cc1c[nH]c2ccccc12)NC(=O)[C@@H](CO)NC(=O)CNC(=O)[C@@H](CCN)NC(=O)[C@@H](C)NC(=O)[C@H](C)N)C(C)C)C(=O)N[C@@H](C)C(=O)O | 1.3 | 64 (≈ 44.5 µM) | > 170 | 32 (≈ 22.3 µM)
9 | CC[C@H](C)[C@@H](NC(=O)[C@@H](NC(=O)[C@H](CCC(=O)O)NC(=O)[C@H](Cc1ccccc1)NC(=O)[C@@H](CCN)NC(=O)[C@H](C)NC(=O)[C@H](CO)NC(=O)[C@@H](Cc1c[nH]c2ccccc12)NC(=O)[C@@H](CO)NC(=O)CNC(=O)[C@@H](CCN)NC(=O)[C@H](N)C(C)C)C(C)C)C(=O)N[C@@H](C)C(=O)O | 5.9 | > 64 | 126 (≈ 92.3 µM) | 64 (≈ 46.9 µM)
10 | CC[C@H](C)[C@@H](NC(=O)[C@@H](NC(=O)[C@H](CCC(=O)O)NC(=O)[C@H](Cc1ccccc1)NC(=O)[C@@H](CCN)NC(=O)[C@H](CCN)NC(=O)[C@H](CO)NC(=O)[C@@H](Cc1c[nH]c2ccccc12)NC(=O)[C@@H](CCN)NC(=O)CNC(=O)[C@@H](CCN)NC(=O)[C@H](N)C(C)C)C(C)C)C(=O)N[C@@H](C)C(=O)O | 0 | > 64 | > 170 | > 64
11 | CC[C@H](C)[C@@H](NC(=O)[C@@H](NC(=O)[C@H](CCC(=O)O)NC(=O)[C@H](Cc1ccccc1)NC(=O)[C@@H](CCN)NC(=O)[C@H](CCN)NC(=O)[C@H](CO)NC(=O)[C@@H](Cc1c[nH]c2ccccc12)NC(=O)[C@@H](CO)NC(=O)CNC(=O)[C@@H](CCN)NC(=O)[C@H](N)CC(=O)O)C(C)C)C(=O)N[C@@H](C)C(=O)O | 0 | > 64 | > 170 | > 64
12 | CC[C@H](C)[C@@H](NC(=O)[C@@H](NC(=O)[C@H](CCC(=O)O)NC(=O)[C@H](Cc1ccccc1)NC(=O)[C@@H](CCN)NC(=O)[C@H](CCN)NC(=O)[C@H](CO)NC(=O)[C@@H](Cc1c[nH]c2ccccc12)NC(=O)[C@@H](CO)NC(=O)CNC(=O)[C@@H](CCN)NC(=O)[C@H](NC(=O)C(C)(C)N)C(C)C)C(C)C)C(=O)N[C@@H](C)C(=O)O | 8.5 | 8 (≈ 5.41 µM) | 83 (≈ 56.1 µM) | 8 (≈ 5.41 µM)
13 | CC[C@H](C)[C@@H](NC(=O)[C@@H](NC(=O)[C@H](CCC(=O)O)NC(=O)[C@H](Cc1ccccc1)NC(=O)[C@@H](CCN)NC(=O)[C@H](CCN)NC(=O)[C@H](CO)NC(=O)[C@@H](Cc1c[nH]c2ccccc12)NC(=O)[C@@H](CO)NC(=O)CNC(=O)[C@@H](CCN)NC(=O)[C@H](NC(=O)[C@H](C)N)C(C)C)C(C)(C)C)C(=O)N[C@@H](C)C(=O)O | 82.7 | 2 (≈ 1.35 µM) | 12 (≈ 8.11 µM) | 2 (≈ 1.35 µM)
14 | CC[C@H](C)[C@@H](NC(=O)[C@@H](NC(=O)[C@H](CCC(=O)O)NC(=O)[C@H](Cc1ccccc1)NC(=O)[C@@H](CCN)NC(=O)[C@H](CCN)NC(=O)[C@H](CO)NC(=O)[C@@H](Cc1c[nH]c2ccccc12)NC(=O)[C@@H](CO)NC(=O)CNC(=O)[C@@H](CCN)NC(=O)[C@H](NC(=O)[C@@H](N)CCN)C(C)C)C(C)C)C(=O)N[C@@H](C)C(=O)O | 10 | 64 (≈ 42.8 µM) | > 70 | 64 (≈ 42.8 µM)
15 | CC[C@H](C)[C@@H](NC(=O)[C@@H](NC(=O)[C@H](CCC(=O)O)NC(=O)[C@H](Cc1ccccc1)NC(=O)[C@@H](CCN)NC(=O)[C@H](CCN)NC(=O)[C@H](CO)NC(=O)[C@@H](Cc1c[nH]c2ccccc12)NC(=O)[C@@H](CO)NC(=O)CNC(=O)[C@@H](CCN)NC(=O)[C@H](NC(=O)C(F)(F)CN)C(C)C)C(C)C)C(=O)N[C@@H](C)C(=O)O | 0 | > 64 | > 170 | > 64
16 | CC[C@H](C)[C@@H](NC(=O)[C@@H](NC(=O)[C@H](CCC(=O)O)NC(=O)[C@H](Cc1ccccc1)NC(=O)[C@@H](CCN)NC(=O)[C@H](CCN)NC(=O)[C@H](CO)NC(=O)[C@@H](C)NC(=O)[C@@H](CO)NC(=O)CNC(=O)[C@@H](CCN)NC(=O)[C@H](NC(=O)[C@H](C)N)C(C)C)C(C)C)C(=O)N[C@@H](C)C(=O)O | 0 | > 64 | > 170 | > 64
17 | CC[C@H](C)[C@@H](NC(=O)[C@@H](NC(=O)[C@H](CCC(=O)O)NC(=O)[C@H](Cc1ccccc1)NC(=O)[C@@H](CCN)NC(=O)[C@H](CCN)NC(=O)[C@H](CO)NC(=O)[C@@H](C)NC(=O)[C@@H](CO)NC(=O)CNC(=O)[C@@H](CCN)NC(=O)[C@H](N)C(C)C)C(C)C)C(=O)N[C@@H](C)C(=O)O | 0 | > 64 | > 170 | > 64
18 | CC[C@H](C)[C@@H](NC(=O)[C@@H](NC(=O)[C@H](CCC(=O)O)NC(=O)[C@H](Cc1ccccc1)NC(=O)[C@@H](CCN)NC(=O)[C@H](CN)NC(=O)[C@H](CO)NC(=O)[C@@H](Cc1c[nH]c2ccccc12)NC(=O)[C@@H](CO)NC(=O)CNC(=O)[C@@H](CCN)NC(=O)[C@H](NC(=O)[C@H](C)N)C(C)C)C(C)C)C(=O)N[C@@H](C)C(=O)O | 0 | > 64 | > 170 | > 64
19 | CC[C@H](C)[C@@H](NC(=O)[C@@H](NC(=O)[C@H](CCC(=O)O)NC(=O)[C@H](Cc1ccccc1)NC(=O)[C@@H](CCN)NC(=O)[C@H](CCN)NC(=O)[C@H](CO)NC(=O)[C@@H](Cc1c[nH]c2ccccc12)NC(=O)[C@@H](CO)NC(=O)[C@H](C)NC(=O)[C@@H](CCN)NC(=O)[C@H](NC(=O)[C@H](C)N)C(C)C)C(C)C)C(=O)N[C@@H](C)C(=O)O | 31.9 | 16 (≈ 10.8 µM) | 74 (≈ 50 µM) | 32 (≈ 21.6 µM)
20 | CC[C@H](C)[C@@H](NC(=O)[C@@H](NC(=O)[C@H](CCC(=O)O)NC(=O)[C@H](Cc1ccccc1)NC(=O)[C@@H](CCN)NC(=O)[C@H](CCN)NC(=O)[C@H](CO)NC(=O)[C@@H](Cc1c[nH]c2ccccc12)NC(=O)[C@@H](CC(=O)O)NC(=O)CNC(=O)[C@@H](CCN)NC(=O)[C@H](N)C(C)C)C(C)C)C(=O)N[C@@H](C)C(=O)O | 0 | > 64 | > 170 | > 64
